row,melting point,SMILES
1,125 °C,Cc1ccc(C(=O)N2CCc3cc(S(=O)(=O)N4CC(c5ccccc5)NC4=O)ccc32)cc1 (configuration not stated)
2,199 °C,Cc1cc2ncnc(N3CCc4ccc(Cl)cc43)c2cc1C
3,228 to 230 °C,O=C1NCCN1c1ccc(S(=O)(=O)Nc2ccc3c(c2)CCC3)cc1
4,138 to 140 °C,CC1=C(C(=O)OC(C)C)C(c2cccc([N+](=O)[O-])c2)N(C(=O)Oc2ccc([N+](=O)[O-])cc2)C(=O)N1 (configuration not stated)
5,187 to 189 °C,O=C(c1ccccc1)N1CCc2[nH]c3cccc(-c4ccccc4OC4CCCC4)c3c2CC1
6,119 to 120 °C,CCOC(=O)C1(c2ccccc2)CCN(c2ncccn2)CC1
7,160 to 161 °C,CCOC(=O)c1cccc(NC(=O)C=Cc2cc(C(C)C)c(C(C)C)o2)c1
8,214 to 216 °C,COC(=O)c1cn(C2CC2)c2c(F)c(F)c(F)cc2c1=O
9,86 to 88 °C,COc1ccc(C(C#Cc2ccccc2)CC(=O)O)cc1OC1CCCC1 (racemic)
10,157 to 163 °C,CC(C)C1(C)N=C(c2ncc(C3CC3)cc2C(=O)O)NC1=O (configuration not stated)
11,96 to 98 °C,CC(C)(C)OC(=O)N1CCN(CCC(N)=O)CC1
12,95 to 100 °C,CC1(C)COc2cc3c(cc21)C1(CO3)C(=O)Nc2ccccc21 (configuration not stated)
13,179 to 180 °C,O=C(O)[C@@H]1CC2(CN1C(=O)OCc1ccccc1)OCCO2
14,185 to 186 °C,CCCOc1ccc(S(=O)(=O)N2CCNCC2)cc1-c1nc2c(CCC)nn(C)c2c(=O)[nH]1
15,158 to 159 °C,Nc1c2c(nc3ccc(F)cc13)-c1ccccc1CC2
16,184 to 186 °C,Cc1ccc(C=NC2=NN(c3ccc4ccccc4c3)CC2)cc1

row,melting point,SMILES
1,89 to 92 °C,N[C@@H](CCCCNC(=O)NCc1ccccc1)C(=O)N1CC(F)(F)C(F)(F)C1
2,125 to 126 °C,N#Cc1ccc2c(c1)C(=C(Cl)Cl)OC(C(Cl)(Cl)Cl)O2 (configuration not stated)
3,70 °C,CCC1CC(=O)N(Cc2cccc(NC(C)=O)c2)N=C1c1ccc(OC)c(OC2CCCC2)c1 (configuration not stated)
4,142 to 144 °C,CC1(C)OCCc2c1[nH]c1ccccc21
5,188 to 191 °C,CN1CCCCC(c2cccc(O)c2)C1=O (configuration not stated)
6,120 to 122 °C,Cc1nn(C)c(S(N)(=O)=O)c1C(=O)OC(C)C
7,213 to 216 °C,Cn1c(C(F)(F)F)cc(=O)n(-c2ccc3snc(C4OCCO4)c3c2)c1=O
8,175 to 176 °C,CC(C)(C)OC(=O)N1CCc2c(n(CCOc3ccccc3)c3ccc(Cl)c(Cl)c23)CC1
9,70 to 72 °C,COc1ccccc1C1=NC(C)(C)CO1
10,80 to 85 °C,N#Cc1ccc(Nc2nc(Cc3c(Cl)cccc3Cl)cc(NCCN3CCCC3)n2)cc1
11,134 to 135 °C,CNC1CCCN(c2c(F)cc3c(=O)c(C(=O)O)cn(C4CC4)c3c2OC)C1 (configuration not stated)
12,118 to 125 °C,CC=C1CCC2C3CCC4CC(O)CCC4(C)C3C(N)CC12C (configuration not stated)
13,241 to 243 °C,COc1ccc2[nH]c3c(C)nc4c(c3c2c1)C(=O)CC(C)(C)C4
14,89 to 92 °C,CSC(C)(C(=O)O)c1ccc(CC(C)C)cc1 (configuration not stated)
15,144 °C,O=C(c1ccc(F)cc1)C1CCN(CCn2c(-c3ccccc3)nc3ccccc3c2=O)CC1
16,210 °C,O=C(OC[C@@H](O)[C@@H]1CC(c2ccc(-c3ccc(N4C[C@H](Cn5ccnn5)OC4=O)cc3F)cn2)=NO1)c1cccnc1

# The next lines start with the compound.
row,SMILES,melting point
1,COc1cc(CNC(=O)c2ccc(Cl)cc2OCC(=O)O)cc(OC)c1,163 °C
2,Clc1ccc(-c2nc3ccccc3n2-c2ccccc2)cc1,139 to 141 °C
3,O=C(Nc1cccc2cc(Br)cnc12)C1c2ccccc2-c2ccccc21,196 to 198 °C
4,COc1cc2nc(N(C)C)nc(N)c2cc1OC,223 to 224 °C
5,Ic1ccc(-c2nc3ccccc3n2-c2ccccc2)cc1,178 to 181 °C
6,FC(F)(F)c1ccc(-c2ncn(CCCN3CCOCC3)c2-c2ccncc2)cc1,133 °C
7,CCCCCCC(C)(C)c1cc(O)c2c(c1)OCCC1=C2CC(C)CC1 (configuration not stated),134 to 136 °C
8,Cc1c(C(=O)c2sc(Nc3ccc(S(N)(=O)=O)cc3)nc2N)sc2ccccc12,274 to 276 °C
9,Cn1c(=O)c(-c2c(Cl)cccc2Cl)cc2cnc(NCc3cccnc3)nc21,224 to 226 °C
10,CCCCn1c(=O)[nH]c2ccc(OC)c(OC)c2c1=N,165 to 168 °C
11,N=C(N)c1ccc(O)c(C(=O)c2ccccc2)c1,186 to 189 °C
12,O=C(CC(O)C(F)(F)F)c1cc(Cl)cc(Cl)c1 (configuration not stated),165 to 166 °C
13,CSc1ccc(-c2cc(Br)nn2-c2ccc(F)cc2)cc1,98 to 99 °C
14,O=C(O)[C@@H]1OC(c2ccccc2)=N[C@H]1c1ccccc1,135 °C
15,CN(C)c1ccc(-c2cc(F)c(F)cc2-c2ccc(S(N)(=O)=O)cc2)cc1Cl,193 to 194 °C
16,O=C(OCc1ccccc1)c1ccc2cc(OCc3ccccc3)ccc2c1,97 to 98 °C
17,O=C(O)c1cccc(COc2cccc(OCc3ccc4ccccc4n3)c2)c1,149 to 151 °C
18,CCOC(=O)[C@H](CSC[C@H](Cc1ccccc1)NC(=O)OCc1ccccc1)N[C@@H](C)C(=O)O,124 to 127 °C
19,CCCc1c(OCCOc2cccc(Sc3ccc(C(=O)O)cc3)c2)ccc(C(C)=O)c1O,144 to 146 °C
20,COc1cccc(CNc2nc(Cl)nc3c2nc(Br)n3C(C)C)c1,123 to 125 °C
21,CN(C)c1cccc(-c2cnc3[nH]cc(C(=O)C(C)(C)C)c3n2)c1,223 to 228 °C
22,O=[N+]([O-])c1ccc(Sc2ccc(Cl)cc2)nc1,134 to 136 °C

row,SMILES,melting point
1,CNc1nc(Cl)nc2cc(OC)c(OC)cc12,216 to 217 °C
2,O=S(CCl)c1ncc(Cl)cn1 (configuration not stated),90 °C
3,CCCCCCCCCCCCC1=C(OC(C)=O)C(=O)c2c(C)cccc2C1=O,69 to 74 °C
4,O=C(Nc1ccc(-n2nc(C(F)(F)F)cc2C(F)(F)F)cc1)c1cc(F)cc(F)c1F,169 to 170 °C
5,CC(=O)NC(Cl)CCC(=O)c1ccccc1 (configuration not stated),157 to 163 °C
6,CS(=O)CC1=C(c2ccccc2)C(=O)N(C(C)(C)C(=O)Nc2cc(F)ccc2F)CO1 (configuration not stated),105 to 107 °C
7,CC(=O)N[C@@H](CSC(C)=O)C(=O)NCCSC(=O)C(C)C,115 to 117 °C
8,O=C(c1c[nH]nc1-c1ccccc1)C(CCN1CCC(O)(c2ccccc2)CC1)c1ccc(Cl)c(Cl)c1 (configuration not stated),99 to 101 °C
9,COc1ccc(C(=O)c2ccc(OC)c([N+](=O)[O-])c2)cc1[N+](=O)[O-],189 to 190 °C
10,CCCc1c(OCCCOc2ccc3c(=O)cc(C(=O)O)oc3c2CCC)ccc(C(C)=O)c1O,173 to 174 °C
11,CC(=O)OCC(=O)NCc1nc(-c2csc(N=C(N)N)n2)cs1,182 to 183 °C
12,CC(c1cccc(C#N)n1)C(O)(Cn1cncn1)c1ccc(F)cc1F (configuration not stated),144 to 146 °C
13,COc1ccccc1C(=O)c1cccc(Br)n1,97 to 98 °C
14,COCc1nc2c(N)nc3cc(CCC(=O)N(C)C)ccc3c2n1CC(C)(C)O,142 to 145 °C
15,Cc1c(O)ccc2c(=O)c(-c3ccc4c(c3)OCO4)coc12,270 to 272 °C
16,CC(C)(C)NC(=O)c1nn(-c2ccc(Cl)cc2)c2c1C1CCC2CC1,198 to 200 °C
17,COc1ccc(-c2cc3ncccc3c(O)n2)cc1,295 to 298 °C
18,O=c1oc2cc(O)cc(O)c2c(O)c1C1c2ccccc2Oc2c1c(=O)oc1cc(O)cc(O)c21 (configuration not stated),> 300 °C
19,CN(C)C=NS(=O)(=O)c1ccc(Br)cc1,141 to 143 °C
20,Cc1ccc2[nH]c3c(cc(-c4ccccc4Nc4ccccc4)c(=O)n3C)c2c1,188 to 190 °C
21,CCOC(=O)c1cccc(-c2ccnc(OCCc3ccc(OC)c(OC)c3)n2)c1,94 to 95 °C
22,O=[N+]([O-])c1ccc(Oc2cc(Cl)c(Cl)cc2Cl)c(Cl)c1Oc1ccccc1,112 °C

row,SMILES,melting point
1,Nc1cccc(C(=O)Nc2ccc(C(=O)N3CCCc4ccccc43)cc2)c1,206 °C
2,C=CCOc1ccnc2c([N+](=O)[O-])cccc12,127 °C
3,CCN1c2ncc(CO)cc2C(=O)N(C)c2ccc(F)nc21,40 °C
4,CNC(=O)Oc1ccccc1C(=O)NC(Oc1ccccc1)C(Cl)(Cl)Cl (configuration not stated),138 to 141 °C
5,CCCCCCCCCCCCCCCCCC(=O)Nc1cccc(N(CC(=O)OC)CC(=O)OC)c1,78 to 79 °C
6,O=C(O)COc1ccc(-c2c3ccccc3c(Br)c3sc4ccccc4c23)cc1,198 to 200 °C
7,O=c1c(Cl)c(OCc2ccc(Cl)cc2)cnn1-c1ccc(Cl)cn1,167 to 169 °C
8,Fc1ccccc1C1=NCc2cncn2-c2ccc(Cl)cc21,148 to 151 °C
9,O=C(c1ccncc1)c1cc(-c2ccncc2)c(N2CCOCC2)s1,124 °C
10,CC(C)c1nc(CN(C)C(=O)N[C@H](C(=O)N[C@@H](Cc2ccccc2)C[C@H](O)[C@H](Cc2ccccc2)NC(=O)OCc2cnco2)C(C)C)cs1,59 to 61 °C
11,CS(=O)(=O)c1ccc(-n2cc(-c3ccc(OC(F)(F)F)cc3)nc2-c2ccc(Cl)cc2)cc1,95 to 97 °C
12,O=C1NC(=O)C(=Cc2ccc3c(c2)c2ccccc2n3Cc2ccc(-c3ccccc3)cc2)S1,> 250 °C
13,CC(C)N(CCC(c1ccccc1)c1cc(CO)ccc1OCc1ccccc1)C(C)C (configuration not stated),86.4 °C
14,O=C(O)CCOCCCc1ccc(-c2nc(=O)c3ccccc3s2)nc1,145 to 147 °C
15,N#Cc1cnn2c1N(C(=O)CCCl)CC=C2c1cccc(C(F)(F)F)c1,183 to 185 °C
16,CC(C)(C)OC(=O)NC(NC(=O)OC(C)(C)C)Nc1ccc(CCc2csc(NC(=O)c3ccccc3)n2)cc1,143 to 144 °C
17,CCCCc1c(C(=O)OCC)cc(O)c2ccc(OC)cc12,112 to 115 °C
18,CC(C)(N)c1ccc(-c2nc(Nc3cccc(F)c3)ncc2C#N)cc1,209 °C
19,O=C1c2ccccc2C(=O)N1CCSc1ncccn1,149 to 150 °C
20,Cc1ncc(CCCOc2c(C)cc(-c3noc(C(F)(F)F)n3)cc2C)s1,62 to 64 °C
21,Cc1oc(-c2ccccc2)nc1COc1ccc(Cn2cc(CO)c(C(C)C)n2)cc1,98 to 99 °C

# Source: a melting point compilation (Tetko et al.; mined from patent text by program, amines drawn as free bases though some values may be those of a salt)
